Experiments:
H460 cells = assay: Apoptosis by Annexin V FITC flow cytometry, H460; format: cell-based, human; details: 10 μM for 3 days
Description: (§1) Compound 1 and other compounds of Tables 1A and 1B were similarly tested for apoptotic effects to represent the inhibitory effects of compounds on interaction between the PDZ domain of the Dishevelled (Dvl) protein and the Fz protein (Wnt receptor). Cell lines H460 and LOX were utilized, with the test compound being applied at 10 μM for 3 days. Cultured cells treated with the test compounds in the culture media were harvested by trypsinization and stained using an Annexin V FITC Apoptosis Detection kit (Oncogene Science, Cambridge, Mass.), according to the manufacturer's protocol. Stained cells were immediately analyzed by flow cytometry (FACScan; Becton-Dickinson, Franklin Lake, N.J.).

LOX cells = assay: Apoptosis by Annexin V FITC flow cytometry, LOX; format: cell-based, human; details: 10 μM for 3 days
Description: as §1

[1] = Assay 3, library 3, control 7.59
[2] = Assay 3, library 3, control 8.81
[3] = Assay 1, library 1, control 9.22
[4] = Assay 1, library 1, control 10.85
[5] = Assay 2, library 2, control 10.24
[6] = Assay 2, library 2, control 9.67

Row | Structure (SMILES) | apoptosis, % H460 (H460 cells; [1]) [%] | apoptosis, % LOX (LOX cells; [2]) [%] | apoptosis, % H460 (H460 cells; [3]) [%] | apoptosis, % LOX (LOX cells; [4]) [%] | apoptosis, % H460 (H460 cells; [5]) [%] | apoptosis, % LOX (LOX cells; [6]) [%]
1 | CCC(C)C(O)c1[nH]c2cc(C)c(C(=O)O)cc2c1-c1ccccc1 (centres unmarked) [Compound 19] | 44.15 | 47.62 |  |  |  | 
2 | CCCCC(=O)c1[nH]c2cc(C)c(C(=O)OC)cc2c1CCc1ccccc1 [Compound 7] |  |  | 13.92 | 17.96 |  | 
3 | CCCCC(O)c1[nH]c2cc(C)c(C(=O)O)cc2c1CCCO (centres unmarked) [Compound 16] |  |  |  |  | 15.7 | 14.5
4 | Cc1cc2[nH]c(C(=O)CC(C)C)c(-c3ccccc3)c2cc1C(=O)O [Compound 43] | 34.22 | 20.24 |  |  |  | 
5 | CCCCC(=O)c1[nH]c2cc(C)c(C(=O)O)cc2c1CCCO [Compound 41] |  |  |  |  | 19.96 | 12.69
6 | Cc1cc2[nH]c(C(=O)CCCc3ccccc3)c(-c3ccccc3)c2cc1C(=O)O [Compound 50] | 41.75 | 72.47 |  |  |  | 
7 | Cc1cc2[nH]c(C(O)C3CCCCC3)c(-c3ccccc3)c2cc1C(=O)O (centres unmarked) [Compound 22] | 16.22 | 15.47 |  |  |  | 
8 | CCCCCc1c(C(=O)CCCC)[nH]c2cc(C)c(C(=O)O)cc12 [Compound 35] |  |  |  |  | 34.73 | 23.23
9 | CCCCC(O)c1[nH]c2cc(C)c(C(=O)O)cc2c1CC(C)C (centres unmarked) [Compound 11] |  |  |  |  | 24.48 | 14.83
10 | Cc1cc2[nH]c(C(O)CCCC(=O)O)c(CCc3ccccc3)c2cc1C(=O)O (centres unmarked) [Compound 6] |  |  | 8.62 | 9.22 |  | 
11 | Cc1cc2[nH]c(C(=O)CC(C)C)c(CCc3ccccc3)c2cc1C(=O)O [Compound 27] |  |  | 16.91 | 18.5 |  | 
12 | Cc1cc2[nH]c(C(=O)CCc3ccccc3)c(-c3ccccc3)c2cc1C(=O)O [Compound 49] | 82.53 | 96.34 |  |  |  | 
13 | Cc1cc2[nH]c(C(=O)C3CCCCC3)c(-c3ccccc3)c2cc1C(=O)O [Compound 47] | 49.77 | 73.02 |  |  |  | 
14 | CCCCC(=O)c1[nH]c2cc(C)c(C(=O)O)cc2c1CCCc1ccccc1 [Compound 40] |  |  |  |  | 23.93 | 16.5
15 | Cc1cc2[nH]c(C(O)CC(C)C)c(-c3ccccc3)c2cc1C(=O)O (centres unmarked) [Compound 18] | 21.11 | 9.53 |  |  |  | 
16 | CCCCC(=O)c1[nH]c2cc(C)c(C(=O)O)cc2c1CCCC(=O)O [Compound 42] |  |  |  |  | 49.41 | 15.22
17 | CCCCC(O)c1[nH]c2cc(C)c(C(=O)O)cc2c1CCCc1ccccc1 (centres unmarked) [Compound 15] |  |  |  |  | 37.4 | 17.57
18 | Cc1cc2[nH]c(C(O)CCc3ccccc3)c(-c3ccccc3)c2cc1C(=O)O (centres unmarked) [Compound 24] | 26.58 | 26.56 |  |  |  | 
19 | CCCCC(=O)c1[nH]c2cc(C)c(C(=O)O)cc2c1C1CCCCC1 [Compound 37] |  |  |  |  | 45.05 | 7.49
20 | Cc1cc2[nH]c(C(=O)CCCC(=O)O)c(CCc3ccccc3)c2cc1C(=O)O [Compound 31] |  |  | 9.07 | 12.06 |  | 
21 | CCCCC(O)c1[nH]c2cc(C)c(C(=O)O)cc2c1C1CCCCC1 (centres unmarked) [Compound 12] |  |  |  |  | 28.8 | 15.83
22 | Cc1cc2[nH]c(C(=O)CC3CCCC3)c(CCc3ccccc3)c2cc1C(=O)O [Compound 29] |  |  | 64.1 | 74.11 |  | 
23 | Cc1cc2[nH]c(C(O)CC3CCCC3)c(-c3ccccc3)c2cc1C(=O)O (centres unmarked) [Compound 21] | 31.22 | 19.99 |  |  |  | 

Row | Structure (SMILES) | apoptosis, % H460 (H460 cells; [1]) [%] | apoptosis, % LOX (LOX cells; [2]) [%] | apoptosis, % H460 (H460 cells; [3]) [%] | apoptosis, % LOX (LOX cells; [4]) [%] | apoptosis, % H460 (H460 cells; [5]) [%] | apoptosis, % LOX (LOX cells; [6]) [%]
24 | Cc1cc2[nH]c(C(=O)C(C)C)c(-c3ccccc3)c2cc1C(=O)O [Compound 45] | 96.96 | 86.71 |  |  |  | 
25 | Cc1cc2[nH]c(C(O)CC3CCCC3)c(CCc3ccccc3)c2cc1C(=O)O (centres unmarked) [Compound 4] |  |  | 36.41 | 32.52 |  | 
26 | Cc1cc2[nH]c(C(=O)C3CCCCC3)c(CCc3ccccc3)c2cc1C(=O)O [Compound 30] |  |  | 78.07 | 55.76 |  | 
27 | CCCCC(O)c1[nH]c2cc(C)c(C(=O)O)cc2c1-c1ccccc1 (centres unmarked) [Compound 13] |  |  |  |  | 35.51 | 17.84
28 | Cc1cc2[nH]c(C(=O)Cc3ccccc3)c(CCc3ccccc3)c2cc1C(=O)O [Compound 33] |  |  | 12.66 | 15.03 |  | 
29 | CCC(C)C(=O)c1[nH]c2cc(C)c(C(=O)O)cc2c1-c1ccccc1 (centres unmarked) [Compound 44] | 37.38 | 54.13 |  |  |  | 
30 | CCC(C)C(=O)c1[nH]c2cc(C)c(C(=O)O)cc2c1CCc1ccccc1 (centres unmarked) [Compound 28] |  |  | 58.76 | 38.53 |  | 
31 | Cc1cc2[nH]c(C(=O)CC3CCCC3)c(-c3ccccc3)c2cc1C(=O)O [Compound 46] | 39.06 | 38.6 |  |  |  | 
32 | CCCCC(=O)c1[nH]c2cc(C)c(C(=O)O)cc2c1Cc1ccccc1 [Compound 39] |  |  |  |  | 42.9 | 29.35
33 | CCCCC(O)c1[nH]c2cc(C)c(C(=O)O)cc2c1Cc1ccccc1 (centres unmarked) [Compound 14] |  |  |  |  | 24.26 | 11.88
34 | Cc1cc2[nH]c(C(O)CC(C)C)c(CCc3ccccc3)c2cc1C(=O)O (centres unmarked) [Compound 2] |  |  | 34.21 | 36.32 |  | 
35 | CCCCCc1c(C(O)CCCC)[nH]c2cc(C)c(C(=O)O)cc12 (centres unmarked) [Compound 10] |  |  |  |  | 39.64 | 19.08
36 | Cc1cc2[nH]c(C(=O)c3ccccc3)c(CCc3ccccc3)c2cc1C(=O)O [Compound 32] |  |  | 21.13 | 15.36 |  | 
37 | CCCCC(=O)c1[nH]c2cc(C)c(C(=O)O)cc2c1CCc1ccccc1 [Compound 26] |  |  | 16.13 | 16.86 |  | 
38 | Cc1cc2[nH]c(C(O)C3CCCCC3)c(CCc3ccccc3)c2cc1C(=O)O (centres unmarked) [Compound 5] |  |  | 24.39 | 27.15 |  | 
39 | Cc1cc2[nH]c(C(O)CC(C)(C)C)c(-c3ccccc3)c2cc1C(=O)O (centres unmarked) [Compound 23] | 12.09 | 11.34 |  |  |  | 
40 | Cc1cc2[nH]c(C(O)C(C)C)c(-c3ccccc3)c2cc1C(=O)O (centres unmarked) [Compound 20] | 28.9 | 11.77 |  |  |  | 
41 | CCC(C)C(O)c1[nH]c2cc(C)c(C(=O)O)cc2c1CCc1ccccc1 (centres unmarked) [Compound 3] |  |  | 79.9 | 56.29 |  | 
42 | Cc1cc2[nH]c(C(=O)CCc3ccccc3)c(CCc3ccccc3)c2cc1C(=O)O [Compound 34] |  |  | 76.59 | 44.73 |  | 
43 | Cc1cc2[nH]c(C(=O)CC(C)(C)C)c(-c3ccccc3)c2cc1C(=O)O [Compound 48] | 24.48 | 15.14 |  |  |  | 
44 | CCCCC(=O)c1[nH]c2cc(C)c(C(=O)O)cc2c1-c1ccccc1 [Compound 38] |  |  |  |  | 51.61 | 13.58
45 | CCCCC(=O)c1[nH]c2cc(C)c(C(=O)O)cc2c1CC(C)C [Compound 36] |  |  |  |  | 41.48 | 13.51
46 | CCCCC(O)c1[nH]c2cc(C)c(C(=O)O)cc2c1CCCC(=O)O (centres unmarked) [Compound 17] |  |  |  |  | 18.93 | 15.62
